Patent US8044079B2, “Substituted oxindole derivatives, medicaments containing said derivatives and use thereof” (Abbott GmbH & Co. KG, priority 2005, dated 2011)

target: T1, human vasopressin V1b receptor (Homo sapiens, UniProt P47901); assay: Vasopressin V1b receptor binding test; conditions: membranes of CHO-K1 cells with human V1b receptor, displacement of 1.5 nM 3H-AVP; for compounds with more than one stereogenic center the diastereomer with greater affinity
T1 construct: expressed in transfected cells; host or cells: CHO-K1 (cell line hV1b_3H2_CHO), membrane preparation
T1 sequence (P47901 1-424): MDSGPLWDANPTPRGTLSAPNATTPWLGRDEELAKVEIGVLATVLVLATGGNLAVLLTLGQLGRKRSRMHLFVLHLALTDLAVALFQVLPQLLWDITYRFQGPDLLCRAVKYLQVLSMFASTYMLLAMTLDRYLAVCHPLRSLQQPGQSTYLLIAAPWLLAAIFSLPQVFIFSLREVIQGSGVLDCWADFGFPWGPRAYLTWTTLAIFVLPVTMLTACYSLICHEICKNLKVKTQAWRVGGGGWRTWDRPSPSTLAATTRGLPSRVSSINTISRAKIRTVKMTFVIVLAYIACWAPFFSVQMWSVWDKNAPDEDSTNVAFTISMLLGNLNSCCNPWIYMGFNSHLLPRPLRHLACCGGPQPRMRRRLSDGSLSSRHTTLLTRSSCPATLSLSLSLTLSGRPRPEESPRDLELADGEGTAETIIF
Method in brief: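 Radioligand displacement on membranes carrying human V1b receptor in 50 mM tris, 10 mM MgCl2, 0.1% BSA, pH 7.4, 2% DMSO final; 60 min at room temperature, nonspecific binding with 1 μM AVP. Free ligand removed by filtration, bound counted by liquid scintillation, Ki from nonlinear regression of triplicates.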

Compound	Ki
COc1ccc(S(=O)(=O)N2C(=O)C(c3ccc(CNCCO)cc3OC)(N3CCC[C@H]3c3ncco3)c3cc(C#N)ccc32)cc1 (stereo partly drawn) [Example 154, 5-Cyano-3-{4-[(2-hydroxyethylamino)methyl]-2-methoxyphenyl}-1-(4-methoxybenzenesulfonyl)-3-((S)-2-oxazol-2-yl-pyrrolidin-1-yl)-1,3-dihydroindol-2-one]	< 10 nM
CNCc1ccc(OC)c(C2(N3CCCC3c3nccs3)C(=O)N(S(=O)(=O)c3ccc(OC)cc3)c3ccc(Cl)cc32)c1 (centres unmarked) [Example 155, 5-Chloro-1-(4-methoxybenzenesulfonyl)-3-(2-methoxy-5-methylaminomethylphenyl)-3-(2-thiazol-2-yl-pyrrolidin-1-yl)-1,3-dihydroindol-2-one]	< 10 nM
COc1cc(CN(C)C)ccc1C1(N2CCC[C@H]2c2ncco2)C(=O)N(S(=O)(=O)c2ccc(C#N)cc2)c2ccc(Cl)cc21 (stereo partly drawn) [Example 156, 5-Chloro-3-(4-dimethylaminomethyl-2-methoxyphenyl)-3-((S)-2-oxazol-2-yl-pyrrolidin-1-yl)-1-(4-cyanobenzenesulfonyl)-1,3-dihydroindol-2-one]	10 to 100 nM
CCCNCc1ccc(C2(N3CCC[C@H]3c3ncco3)C(=O)N(S(=O)(=O)c3ccc(C#N)cc3)c3ccc(Cl)cc32)c(OC)c1 (stereo partly drawn) [Example 159, 5-Chloro-3-(2-methoxy-4-propylaminomethylphenyl)-3-((S)-2-oxazol-2-yl-pyrrolidin-1-yl)-1-(4-cyanobenzenesulfonyl)-1,3-dihydroindol-2-one]	10 to 100 nM
COc1ccc(S(=O)(=O)N2C(=O)C(c3cc(CN4CCNCC4)ccc3OC)(N3C[C@H](O)C[C@H]3c3ncco3)c3cc(C#N)ccc32)cc1 (stereo partly drawn) [Example 160, 5-Cyano-3-((2S,4R)-4-hydroxy-2-oxazol-2-yl-pyrrolidin-1-yl)-1-(4-methoxybenzenesulfonyl)-3-(2-methoxy-5-piperazin-1-ylmethylphenyl)-1,3-dihydroindol-2-one]	< 10 nM
COc1cc(CN2CCNCC2)ccc1C1(N2CCC[C@H]2c2ncco2)C(=O)N(S(=O)(=O)c2ccc(C#N)cc2)c2ccc(Cl)cc21 (stereo partly drawn) [Example 162, 5-Chloro-3-(2-methoxy-4-piperazin-1-ylmethylphenyl)-3-((S)-2-oxazol-2-yl-pyrrolidin-1-yl)-1-(4-cyanobenzenesulfonyl)-1,3-dihydroindol-2-one]	< 10 nM
COc1ccc(S(=O)(=O)N2C(=O)C(c3cc(CN4CCN(C)CC4)cnc3OC)(N3CCC[C@H]3c3ncco3)c3cc(Cl)ccc32)cc1 (stereo partly drawn) [Example 164, 5-Chloro-1-(4-methoxybenzenesulfonyl)-3-[2-methoxy-5-(4-methylpiperazin-1-ylmethyl)pyridin-3-yl]-3-((S)-2-oxazol-2-yl-pyrrolidin-1-yl)-1,3-dihydroindol-2-one]	< 10 nM
COc1ccc(S(=O)(=O)N2C(=O)C(c3cc(CNC4CC4)ccc3OC)(N3CCC[C@H]3c3ncco3)c3cc(Cl)ccc32)cc1 (stereo partly drawn) [Example 168, 5-Chloro-3-(5-cyclopropylaminomethyl-2-methoxyphenyl)-1-(4-methoxybenzenesulfonyl)-3-((S)-2-oxazol-2-yl-pyrrolidin-1-yl)-1,3-dihydroindol-2-one]	< 10 nM
COc1ccc(S(=O)(=O)N2C(=O)C(c3ccc(CN4CCCCC4)cc3OC)(N3C[C@H](O)C[C@H]3c3ncco3)c3cc(Cl)ccc32)cc1 (stereo partly drawn) [Example 169, 5-Chloro-3-((2S,4R)-4-hydroxy-2-oxazol-2-yl-pyrrolidin-1-yl)-1-(4-methoxybenzenesulfonyl)-3-(2-methoxy-4-piperidin-1-ylmethylphenyl)-1,3-dihydroindol-2-one]	< 10 nM
CCN(C)Cc1ccc(C2(N3C[C@H](O)C[C@H]3c3ncco3)C(=O)N(S(=O)(=O)c3ccc(OC)cc3)c3ccc(Cl)cc32)c(OC)c1 (stereo partly drawn) [Example 170, 5-Chloro-3-{4-[(ethylmethylamino)methyl]-2-methoxyphenyl}-3-((2S,4R)-4-hydroxy-2-oxazol-2-yl-pyrrolidin-1-yl)-1-(4-methoxybenzenesulfonyl)-1,3-dihydroindol-2-one]	< 10 nM
COc1ccc(CN2CCN(C)CC2)cc1C1(N2CCC[C@H]2c2ncco2)C(=O)N(S(=O)(=O)c2cccs2)c2ccc(Cl)cc21 (stereo partly drawn) [Example 171, 5-Chloro-3-[2-methoxy-5-(4-methylpiperazin-1-ylmethyl)phenyl]-3-((S)-2-oxazol-2-yl-pyrrolidin-1-yl)-1-(thiophene-2-sulfonyl)-1,3-dihydroindol-2-one]	10 to 100 nM
COc1ccc(S(=O)(=O)N2C(=O)C(c3ccc(CN(C)C)cc3OC)(N3C[C@H](O)C[C@H]3c3ncco3)c3cc(C#N)ccc32)cc1 (stereo partly drawn) [Example 172, 5-Cyano-3-(4-dimethylaminomethyl-2-methoxyphenyl)-3-((2S,4R)-4-hydroxy-2-oxazol-2-yl-pyrrolidin-1-yl)-1-(4-methoxybenzenesulfonyl)-1,3-dihydroindol-2-one]	10 to 100 nM
COc1ccc(S(=O)(=O)N2C(=O)C(c3cc(CN(C)C)ccc3F)(N3CCC[C@H]3c3ncco3)c3cc(Cl)ccc32)cc1 (stereo partly drawn) [Example 174, 5-Chloro-3-(5-dimethylaminomethyl-2-fluorophenyl)-1-(4-methoxybenzenesulfonyl)-3-((S)-2-oxazol-2-yl-pyrrolidin-1-yl)-1,3-dihydroindol-2-one]	10 to 100 nM
CCNCc1ccc(F)c(C2(N3CCC[C@H]3c3ncco3)C(=O)N(S(=O)(=O)c3ccc(OC)cc3)c3ccc(Cl)cc32)c1 (stereo partly drawn) [Example 176, 5-Chloro-3-(5-ethylaminomethyl-2-fluorophenyl)-1-(4-methoxybenzenesulfonyl)-3-((S)-2-oxazol-2-yl-pyrrolidin-1-yl)-1,3-dihydroindol-2-one]	10 to 100 nM

Second part, the compound after the results:

Ki	Compound
10 to 100 nM	COc1cc(CN2CCCC2)ccc1C1(N2CCC[C@H]2c2ncco2)C(=O)N(S(=O)(=O)c2ccc(C#N)cc2)c2ccc(Cl)cc21 (stereo partly drawn) [Example 157, 5-Chloro-3-(2-methoxy-4-pyrrolidin-1-ylmethylphenyl)-3-((S)-2-oxazol-2-yl-pyrrolidin-1-yl)-1-(4-cyanobenzenesulfonyl)-1,3-dihydroindol-2-one]
< 10 nM	COc1cc(CN2CCN(C)CC2)ccc1C1(N2CCC[C@H]2c2ncco2)C(=O)N(S(=O)(=O)c2ccc(C#N)cc2)c2ccc(Cl)cc21 (stereo partly drawn) [Example 158, 5-Chloro-3-[2-methoxy-4-(4-methylpiperazin-1-ylmethyl)phenyl]-3-((S)-2-oxazol-2-yl-pyrrolidin-1-yl)-1-(4-cyanobenzenesulfonyl)-1,3-dihydroindol-2-one]
< 10 nM	C=CCNCc1ccc(OC)c(C2(N3CCC[C@H]3c3ncco3)C(=O)N(S(=O)(=O)c3ccc(OC)cc3)c3ccc(Cl)cc32)c1 (stereo partly drawn) [Example 161, 5-Chloro-3-(5-allylaminomethyl-2-methoxyphenyl)-1-(4-methoxybenzenesulfonyl)-3-((S)-2-oxazol-2-yl-pyrrolidin-1-yl)-1,3-dihydroindol-2-one]
< 10 nM	CNCc1ccc(OC)c(C2(N3C[C@H](O)C[C@H]3c3ncco3)C(=O)N(S(=O)(=O)c3ccc(OC)cc3)c3ccc(C#N)cc32)c1 (stereo partly drawn) [Example 163, 5-Cyano-3-((2S,4R)-4-hydroxy-2-oxazol-2-yl-pyrrolidin-1-yl)-1-(4-methoxybenzenesulfonyl)-3-(2-methoxy-5-methylaminomethylphenyl)-1,3-dihydroindol-2-one]
< 10 nM	COc1ccc(S(=O)(=O)N2C(=O)C(c3ccc(CN4CCN(C)CC4)cc3OC)(N3C[C@H](O)C[C@H]3c3ncco3)c3cc(Cl)ccc32)cc1 (stereo partly drawn) [Example 165, 5-Chloro-3-((2S,4R)-4-hydroxy-2-oxazol-2-yl-pyrrolidin-1-yl)-1-(4-methoxybenzenesulfonyl)-3-[2-methoxy-4-(4-methylpiperazin-1-ylmethyl)phenyl]-1,3-dihydroindol-2-one]
< 10 nM	COc1ccc(S(=O)(=O)N2C(=O)C(c3ccc(CN4CCN(C(C)C)CC4)cc3OC)(N3C[C@H](O)C[C@H]3c3ncco3)c3cc(Cl)ccc32)cc1 (stereo partly drawn) [Example 166, 5-Chloro-3-((2S,4R)-4-hydroxy-2-oxazol-2-yl-pyrrolidin-1-yl)-3-[4-(4-isopropylpiperazin-1-ylmethyl)-2-methoxyphenyl]-1-(4-methoxybenzenesulfonyl)-1,3-dihydroindol-2-one]
< 10 nM	CNCc1cnc(OC)c(C2(N3CCC[C@H]3c3ncco3)C(=O)N(S(=O)(=O)c3ccc(OC)cc3)c3ccc(Cl)cc32)c1 (stereo partly drawn) [Example 167, 5-Chloro-1-(4-methoxybenzenesulfonyl)-3-(2-methoxy-5-methylaminomethylpyridin-3-yl)-3-((S)-2-oxazol-2-yl-pyrrolidin-1-yl)-1,3-dihydroindol-2-one]
10 to 100 nM	COc1ccc(S(=O)(=O)N2C(=O)C(c3cc(CN4CCN(C)CC4)ccc3F)(N3CCC[C@H]3c3ncco3)c3cc(Cl)ccc32)cc1 (stereo partly drawn) [Example 173, 5-Chloro-3-[2-fluoro-5-(4-methylpiperazin-1-ylmethyl)phenyl]-1-(4-methoxybenzenesulfonyl)-3-((S)-2-oxazol-2-yl-pyrrolidin-1-yl)-1,3-dihydroindol-2-one]
10 to 100 nM	COc1ccc(S(=O)(=O)N2C(=O)C(c3cc(CNC(C)C)ccc3F)(N3CCC[C@H]3c3ncco3)c3cc(Cl)ccc32)cc1 (stereo partly drawn) [Example 175, 5-Chloro-3-[2-fluoro-5-(isopropylaminomethyl)phenyl]-1-(4-methoxybenzenesulfonyl)-3-((S)-2-oxazol-2-yl-pyrrolidin-1-yl)-1,3-dihydroindol-2-one]
